Experimental data published in patent US10973822B2, “Combination therapy for treatment of hematological cancers and solid tumors” (Celgene Corporation, priority 2015, dated 2021).

Key:
advanced melanoma = details: patients with advanced melanoma; Hodi et al. 2010; cited from earlier work
[1] = tested on: DLBCL, FL and T-cell lymphomas; details: monotherapy; cited from earlier work
[2] = tested on: LPS-stimulated hPBMC and human whole blood; experiment: Cytokine modulation in LPS-stimulated hPBMC and human whole blood; type: cell-based
Source text: TNF-α is an inflammatory cytokine produced by macrophages and monocytes during acute inflammation. TNF-α is responsible for a diverse range of signaling events within cells. TNF-α may play a pathological role in cancer. Without being limited by theory, one of the biological effects exerted by Compound A is the reduction of synthesis of TNF-α. Compound A enhances the degradation of TNF-α mRNA.

[3] = tested on: murine liver cancer cell line (BNL-1MEA); experiment: Orthotopic HCC (liver cancer) model; type: in vivo, mice; details: Compound A in combination with anti-CTLA-4 antibody; 22 days of treatment; FIG. 1
Method: The effects of Compound A in combination with checkpoint inhibitors were investigated in an orthotopic HCC model. The orthotopic HCC model was established by injecting about 2×10^5 murine liver cancer cell line (BNL-1MEA) cells into the sub-capsular area of the left liver lobe of male BALB/c or SCID mice at age of 6-7 weeks. Mice were randomized to different treatment groups on day 6 after tumor implantation. Tumor volumes were measured after 22 days of treatment with Compound A alone, the checkpoint inhibitor alone, and Compound A in combination with the checkpoint inhibitor by using the following formula: volume [mm^3]=[width]^2×length×0.5. Tumor tissues were cut into small pieces, followed by incubation with HBSS containing collagenase type I (0.05 mg/ml), collagenase type IV (0.05 mg/ml), hyaluronidase (0.025 mg/ml), DNase (0.01 mg/ml) and soybean trypsin inhibitor (1 mg/ml) (all from Sigma-Aldrich) for 15 minutes. TILs were recovered by using Ficoll-Paque gradient and subjected to lymphocyte subpopulations analysis by flow cytometry (FACScan Caliber, Becton Dickinson; data processed by using the […] Software, BD Biosciences Pharmingen). CD4+ T cells, CD8+ T cells, NK cells, or NKT cells were determined by double staining with specific antibodies recognizing murine CD3 (clone 145-2C11), CD4 (cone GK1.5), CD8 (clone 53-6.7), or Pan-NK (clone DX5)(BD Biosciences Pharmingen). […]

SEB-stimulated PBMC = experiment: 5 day SEB-stimulated PBMC assay (IL-2 ELISA); type: cell-based, human; details: for IL-2 secretion compared to either single agent: 5 days
Method: In one exemplary study, PBMC cells were pretreated with Compound A for 1 hour, then SEB/CPI were added for 5 days, IL-2 elisa on day 5. The results are shown in FIG. 2A (Compound A in combination with nivolumab), FIG. 2B (Compound A in combination with a surrogate commercial anti-PD-1 antibody from BioLegend), and FIG. 2C (Compound A in combination with a surrogate commercial anti-PD-L1 antibody from BioLegend).
In another exemplary study, Compound A treated PBMCs from healthy donors were stimulated with 10 pg/ml of SEB (ThermoFisher Scientific) followed by addition of nivolumab (obtained from Blue Door Pharma), anti-PD1 (anti-human CD279 clone EH12.2H7, obtained from BioLegend, Cat #329926, lot B194623), and anti-PD-L1 (anti-human CD274 (B7-H1) clone 29E.2A3, obtained from BioLegend, Cat #329716, lot B197650) blocking antibodies. After 5 days of incubation, supernatants were collected and an ELISA for IL-2 (BD Biosciences) was utilized to examine secreted IL-2.

[4] = tested on: CD4+ T cells co-cultured with monocyte-derived DC; experiment: Mixed lymphocyte reaction (MLR) assay; type: cell-based, human; details: for IL-2 secretion compared to either single agent: 48 hours
Method: In one exemplary study, monocytes were isolated from buffy coat using Easy Sep kit (StemCell Technologies) and cultured in RPMI supplemented with 10% FBS, IL-4, and GM-CSF for 7 days. On day 7, CD4+ T cells were isolated from leukopak using Easy Sep kit (StemCell Technologies) and co-cultured with Monocyte-derived DC (MDC) using a 10:1 ratio. Secreted IL-2 was quantified by ELISA at 48 hours and IFNγ was measured at 5 days. Throughout the experiment, surface marker expression was determined by flow cytometry. The results are shown in FIG. 3A (IL-2, 10 nM Compound A), FIG. 3B (IL-2, 100 nM Compound A), and FIG. 4A (IFNγ, 100 nM). Compound A in combination with nivolumab enhanced IL-2 and IFNγ secretion in the mixed lymphocyte reaction. In another exemplary study, monocytes were isolated from healthy donor buffy coat (Stem Cell Technologies) and cultured with 500 U/ml IL-4 and 250 U/ml GM-CSF (R&D Systems) for 7 days until the monocytes differentiated into dendritic cells (DC) by culturing with media containing a cocktail of IL-4 and GM-CSF for 7 days. On day 7, CD4^+ T cells from a different healthy donor were isolated from a leukopak (Stem Cell Technologies). The DC and T cells were mixed at a ratio of 1:10 and co-cultured for 5 days with Compound A and nivolumab (obtained from Blue Door Pharma) or anti-PD-L1 (anti-human CD274 (B7-H1) clone 29E.2A3, obtained from BioLegend, Cat #329716, lot B197650). Supernatants were harvested for IL-2 ELISA at 48 hours (R&D Systems) and for IFNγ ELISA at 5 days (Thermo Fisher Scientific). Monocytes, DC, T cells, and mixed lymphocytes were stained for flow cytometric analysis of CD14, HLA-DR, CD80, CD86, CD83, CD40, CD3, PD-1, PD-L1 surface expression markers throughout the duration of the experiment.

[5] = tested on: anti-CD3/CD28 stimulated PBMCs (NK, NKT, CD4+ and CD8+ T cell); experiment: Lymphocyte proliferation assay; type: cell-based, human; details: combination of Compound A with nivolumab, 6 days
Method: To further explore immune activation resulting from the combination of Compound A and nivolumab, proliferation of immune cell subsets including NK, NKT, CD4+ and CD8+ T cell was examined. CellTrace Violet (Thermo Fisher) labeled PBMCs from healthy volunteers were treated with Compound A and nivolumab in combination or as single agent, and stimulated with soluble anti-CD3/CD28 (Stem Cell Technologies) for 6 days. Cells were collected and flow cytometry was performed to assay for surface expression of CD3, CD4, CD8, and CD56 (BD Biosciences). Dead cells were excluded by live/dead fixable stain (ThermoFisher Scientific). Prior to flow cytometry, CountBright beads (Thermo Fisher Scientific) were added to examine changes in absolute cell count.

[6] = tested on: JHH4, a PD-L1 positive HCC cell line; experiment: PBMC mediated natural cytotoxicity against JHH4; type: cell-based, human; details: p<0.05, FIG. 6
[7] = tested on: CD4+ and CD8+ T cells and autologous CLL tumor cells; experiment: Immunological synapse bioassay in CLL cells; type: cell-based, human
[8] = tested on: acute myeloid leukemia (AML) at relapse; details: administered alone; cited from earlier work
[9] = Compound A 0.01-1 μM for 24 h, compared to vehicle treated cells, P<0.01
[10] = synapse with PD-L1+ tumor cells

For “ipilimumab: fully human monoclonal IgG antibody that binds to CTLA-4”, the overall survival (advanced melanoma) is listed as “overall survival benefit”.
In the case of “nivolumab: human IgG4 anti-PD-1 monoclonal antibody”, the antitumor activity [1] is given as “has shown antitumor activity”.
With `Cc1nc2cccc(N)c2c(=O)n1C1CCC(=O)NC1=O` (centres unmarked) [Compound A, 3-(5-amino-2-methyl-4-oxo-4H-quinazolin-3-yl)-piperidine-2,6-dione] the IL-1β inhibition [2] was “potently inhibits”, the IL-10 stimulation [2] was “stimulates” and the TNF-α inhibition [2] was “markedly inhibits”. For the same compound, the “anti-tumor efficacy in term of tumor volume” value [3] was “significant synergistic anti-tumor efficacy”, the “IL-2 secretion compared to either single agent” value (SEB-stimulated PBMC; 40 nM Compound A with anti-PD-1 blocking antibody, synergy above 1 μg/ml anti-PD-1, FIG. 2E) was “synergistic IL-2 secretion” and the “IL-2 secretion compared to either single agent” value (SEB-stimulated PBMC; 40 nM Compound A with anti-PD-L1 blocking antibody, synergy above 10 μg/ml anti-PD-L1, FIG. 2F) was “synergistic IL-2 secretion”. For the same compound, the “IL-2 secretion compared to either single agent” value (SEB-stimulated PBMC; 40 nM Compound A with nivolumab, synergy between 0.1-100 μg/ml nivolumab, FIG. 2D) was “synergistic IL-2 secretion”, the IL-2 secretion (SEB-stimulated PBMC; Compound A pretreatment 1 hour, then SEB/CPI (nivolumab, anti-PD-1 or anti-PD-L1) for 5 days, FIG. 2A-2C) was “synergistically enhanced IL-2 secretion” and the IL-2 secretion ([4]; Compound A (10 nM, 100 nM) in combination with nivolumab, ELISA at 48 hours, FIG. 3A, 3B) was “enhanced”. The IFNγ secretion ([4]; Compound A (100 nM) in combination with nivolumab, 5 days, FIG. 4A) was “enhanced”, the “IL-2 secretion compared to either single agent” value ([4]; Compound A with anti-PD-L1, synergy at 1-10 μg/ml anti-PD-L1, FIG. 3D) was “synergistic IL-2 secretion” and the IFNγ secretion ([4]; Compound A with anti-PD-L1 between 0.1-10 μg/ml, 5 days of co-culture, FIG. 4C) was “increased synergistically”. For the same compound, the IFNγ secretion ([4]; Compound A with nivolumab between 0.1-10 μg/ml, 5 days of co-culture, FIG. 4B) was “increased synergistically”, the “IL-2 secretion compared to either single agent” value ([4]; Compound A with nivolumab, synergy between 0.01-10 μg/ml nivolumab, FIG. 3C) was “synergistic IL-2 secretion” and the “proliferation in NK cells (absolute cell numbers)” value ([5]; FIG. 5A) was “enhanced proliferation”. The “proliferation in NKT cells (absolute cell numbers)” value ([5]; FIG. 5B) was “enhanced proliferation”, the “proliferation in CD4+ T-cells (absolute cell numbers)” value ([5]; FIG. 5C) was “but not CD4+ T-cells” and the “proliferation in CD8+ T-cells (absolute cell numbers)” value ([5]; FIG. 5D) was “enhanced proliferation”. For the same compound, the “PBMC-mediated cell killing of HCC cell line JHH4” value ([6]; 50 nM Compound A combined with 1 μg/ml anti-PD-L1) was “significantly enhanced”, the “PBMC-mediated cell killing of HCC cell line JHH4” value ([6]; 50 nM Compound A combined with 1-10 μg/ml nivolumab) was “significantly enhanced” and the “formation of F-actin immune synapses (area size)” value [7, 9] was “increased”. For the same compound, the “number of T cells recognizing tumor cells (% conjugation formation)” value [7, 9] was “dramatically enhanced”, the “T cell synapse activity compared to immunotherapy alone” value ([7]; Compound A with anti-CTLA-4 blocking antibody, FIG. 7A) was “increased T cell synapse activity” and the “T cell synapse activity compared to immunotherapy alone” value ([7]; Compound A with anti-PD-1 blocking antibody, FIG. 7B) was “increased T cell synapse activity”. For the same compound, the “T cell synapse activity compared to immunotherapy alone” value ([7]; Compound A with anti-PD-L1 blocking antibody, FIG. 7C) was “increased T cell synapse activity”, the “synapse strength (total fluorescence intensity of F-actin per T cell:APC conjugate)” value ([7]; P<0.01) was “increased significantly” and the “recruitment of inducible co-stimulator (ICOS) to the synapse” value ([7]; dose-dependent, P<0.01) was “increased recruitment”. For the same compound, the “polarized expression of CTLA-4 at the synapse” value [7, 10] was “increased polarized expression” and the “polarized expression of PD-1 at the synapse” value [7, 10] was “increased polarized expression”.
In the case of “CT-011: anti-PD-1 antibody, a humanized antibody”, the “response in treating AML at relapse” value [8] is listed as “failed to show response”.
